How the values were obtained:
[1] = assay type: in vitro ADME, mice, rats, monkeys, humans; settings: mouse, rat, monkey, human
Experimental: In vitro metabolism of ALC-0315 and ALC-0159 was evaluated in blood, liver microsomes, S9 fractions, and hepatocytes from mice, rats, monkeys, and humans. In vivo metabolism was examined in rat plasma, urine, faeces, and liver samples from the PK study. […] ALC-0315 and ALC-0159 are apparently metabolised by hydrolytic metabolism of the ester and amide functionalities, respectively, and this hydrolytic metabolism is observed across the species evaluated.

[2] = assay type: in vivo, rats; settings: rat
Experimental: A single dose PK study of ALC-0315 and […] following intravenous (IV) bolus injection of a nanoparticle formulation in rats was conducted to assess the PK and metabolism of lipid excipients ALC-0315 and ALC-0159.

[3] = target: human ACE2 peptidase domain (amino acids 1-615 of human ACE2 with C-terminal His-10 and Avi tags) (human) (UniProt Q9BYF1)
Sequence of UniProt Q9BYF1 (Q9BYF1 18-615 limits assumed): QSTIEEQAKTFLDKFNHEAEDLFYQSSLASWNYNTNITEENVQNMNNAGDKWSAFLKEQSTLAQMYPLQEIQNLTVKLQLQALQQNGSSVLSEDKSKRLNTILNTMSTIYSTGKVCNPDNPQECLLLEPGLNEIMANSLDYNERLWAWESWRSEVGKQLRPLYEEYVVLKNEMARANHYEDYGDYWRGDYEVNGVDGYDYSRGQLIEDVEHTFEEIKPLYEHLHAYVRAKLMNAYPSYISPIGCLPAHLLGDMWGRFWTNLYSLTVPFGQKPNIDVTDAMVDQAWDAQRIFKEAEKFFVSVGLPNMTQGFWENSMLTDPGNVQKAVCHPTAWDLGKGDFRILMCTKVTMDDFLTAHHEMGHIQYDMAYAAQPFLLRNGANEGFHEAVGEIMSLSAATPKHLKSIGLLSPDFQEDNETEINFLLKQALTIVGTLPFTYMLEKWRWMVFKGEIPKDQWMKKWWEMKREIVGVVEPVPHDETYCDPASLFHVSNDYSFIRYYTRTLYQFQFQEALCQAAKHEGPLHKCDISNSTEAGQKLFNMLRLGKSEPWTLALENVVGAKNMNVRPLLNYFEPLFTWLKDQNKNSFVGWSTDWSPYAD

| Compound | metabolism in vitro and in vivo [1] | eliminated unchanged in faeces [2] | apparent terminal t½ in plasma and liver ([2]; IV) | drop of concentration in liver ([2]; IV, over 2 weeks) | drop of concentration in plasma ([2]; IV, over 2 weeks) | Kd [3] | fold difference of KD against the reported KD of monomeric RBD [3] |
| --- | --- | --- | --- | --- | --- | --- | --- |
| CCCCCCCCC(CCCCCC)C(=O)OCCCCCCN(CCCCO)CCCCCCOC(=O)C(CCCCCC)CCCCCCCC (stereo not shown) [ALC-0315, ((4-hydroxybutyl)azanediyl)bis(hexane-6,1-diyl)bis(2-hexyldecanoate)] | relatively slowly | little to no unchanged material | 140 to 190 h | ~4 fold | approximately 7000 fold | – | – |
| RBD-foldon trimer (trimerised SARS-CoV-2 spike receptor-binding domain fused to T4 fibritin foldon, (other; other documents disagree on this pair) | – | – | – | – | – | 5 pM | 1000 fold |
